Results: patent US9643970B2, “Substituted imidazo [1,5-a]pyrazines as PDE9 inhibitors” (H Lundbeck A/S, priority 2012, dated 2017)
Read-outs that look alike come from different tables or passages of the source.

Molecular target: PDE9 (Homo sapiens, UniProt O76083)
Assay: PDE9 inhibition assay
Format: biochemical
Procedure: Reactions are initiated by addition of the cyclic nucleotide substrate, and reactions are allowed to proceed for one hr at room temperature before being terminated through mixing with 15 uL 8 mg/mL yttrium silicate SPA beads (Amersham). […] IC50 values were calculated by non linear regression using XLfit (IDBS).

[1] = SPA assay, 10 nM 3H-cAMP, 1 hour incubation, read-out: IC50

PDE9, sequence (O76083 whole entry): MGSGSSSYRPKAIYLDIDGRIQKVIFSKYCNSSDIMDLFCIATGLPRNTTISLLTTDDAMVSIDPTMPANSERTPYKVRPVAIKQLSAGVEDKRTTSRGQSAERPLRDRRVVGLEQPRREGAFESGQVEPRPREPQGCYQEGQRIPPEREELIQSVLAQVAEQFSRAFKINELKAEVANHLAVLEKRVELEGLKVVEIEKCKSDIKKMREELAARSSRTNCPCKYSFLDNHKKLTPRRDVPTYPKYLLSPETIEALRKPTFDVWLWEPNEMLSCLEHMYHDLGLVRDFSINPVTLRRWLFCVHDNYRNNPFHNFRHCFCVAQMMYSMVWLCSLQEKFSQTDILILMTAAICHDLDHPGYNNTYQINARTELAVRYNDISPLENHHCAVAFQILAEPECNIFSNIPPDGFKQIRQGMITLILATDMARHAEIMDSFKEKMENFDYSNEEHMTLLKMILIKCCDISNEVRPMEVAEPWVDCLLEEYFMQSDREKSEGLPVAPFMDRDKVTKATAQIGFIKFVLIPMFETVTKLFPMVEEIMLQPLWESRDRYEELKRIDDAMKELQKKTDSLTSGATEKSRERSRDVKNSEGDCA

Row | SMILES | IC50 [1] [nM] | IC50 [nM]
1 | CC(c1cn2c(-c3ccccc3)ncc2c(=O)[nH]1)N1CC(Oc2cccc(F)c2)C1 (stereo not shown) [Compound 24, 6-[1-[3-(3-fluorophenoxy)azetidin-1-yl]ethyl]-3-phenyl-7h-imidazo[1,5-a]pyrazin-8-one] | 25 | 
2 | CC(c1cn2c(-c3ccccc3)ncc2c(=O)[nH]1)N1CC(Oc2ccc(F)cc2)C1 (stereo not shown) [Compound 26, 6-[1-[3-(4-fluorophenoxy)azetidin-1-yl]ethyl]-3-phenyl-7h-imidazo[1,5-a]pyrazin-8-one] | 19 | 
3 | O=c1[nH]c(CN2CC(c3ncccn3)C2)cn2c(-c3ccc(F)cc3)ncc12 [Compound 53, 3-(4-fluorophenyl)-6-[(3-pyrimidin-2-ylazetidin-1-yl)methyl]-7h-imidazo[1,5-a]pyrazin-8-one] | 22 | 
4 | COC1CN(C(c2ccccc2)c2cn3c(-c4ccccc4)ncc3c(=O)[nH]2)C1 (stereo not shown) [Compound 22, 6-[(3-methoxyazetidin-1-yl)-phenyl-methyl]-3-phenyl-7h-imidazo[1,5-a]pyrazin-8-one] |  | 37
5 | CC1CN(Cc2ccc(C(F)(F)F)nc2)CC1c1cn2c(C3CCOCC3)ncc2c(=O)[nH]1 (stereo not shown) [Compound 79, 6-[4-methyl-1-[[6-(trifluoromethyl)-3-pyridyl]methyl]pyrrolidin-3-yl]-3-tetrahydropyran-4-yl-7h-imidazo[1,5-a]pyrazin-8-one] | 23 | 
6 | O=c1[nH]c(CN2CC(Oc3ccccc3)C2)cn2c(-c3ccc(F)cc3)ncc12 [Compound 73, 3-(4-fluorophenyl)-6-[(3-phenoxyazetidin-1-yl)methyl]-7h-imidazo[1,5-a]pyrazin-8-one] | 177 | 
7 | CC(c1cn2c(C3CCCC3)ncc2c(=O)[nH]1)N1CC(c2ccc(F)cc2)C1 (stereo not shown) [Compound 40, 3-cyclopentyl-6-[1-[3-(4-fluorophenyl)azetidin-1-yl]ethyl]-7h-imidazo[1,5-a]pyrazin-8-one] | 5 | 
8 | O=c1[nH]c(CN2CC(Oc3ccc(F)cc3)C2)cn2c(-c3ccc(F)cc3)ncc12 [Compound 63, 6-[[3-(4-fluorophenoxy)azetidin-1-yl]methyl]-3-(4-fluorophenyl)-7h-imidazo[1,5-a]pyrazin-8-one] | 13 | 
9 | CC1CN(Cc2ccc(F)cc2)CC1c1cn2c(-c3ccc(F)cc3)ncc2c(=O)[nH]1 (stereo not shown) [Compound 99, 3-(4-fluorophenyl)-6-[1-[(4-fluorophenyl)methyl]-4-methyl-pyrrolidin-3-yl]-7h-imidazo[1,5-a]pyrazin-8-one] | 17 | 
10 | O=c1[nH]c(CN2CC(Oc3cccnc3)C2)cn2c(-c3ccc(F)cc3)ncc12 [Compound 88, 3-(4-fluorophenyl)-6-[[3-(3-pyridyloxy)azetidin-1-yl]methyl]-7h-imidazo[1,5-a]pyrazin-8-one] |  | 3
11 | CC(c1cn2c(-c3ccccc3)ncc2c(=O)[nH]1)N1CC(Oc2ccccc2)C1 (stereo not shown) [Compound 25, 6-[1-(3-phenoxyazetidin-1-yl)ethyl]-3-phenyl-7h-imidazo[1,5-a]pyrazin-8-one] |  | 28
12 | O=c1[nH]c(CN2CC(Oc3cnccn3)C2)cn2c(-c3ccccc3)ncc12 [Compound 4, 3-phenyl-6-[(3-pyrazin-2-yloxyazetidin-1-yl)methyl]-7h-imidazo[1,5-a]pyrazin-8-one] |  | 32
13 | Cc1ccc(COC2CN(Cc3cn4c(-c5ccc(F)cc5)ncc4c(=O)[nH]3)C2)cc1 [Compound 113, 3-(4-fluorophenyl)-6-[[3-(p-tolylmethoxy)azetidin-1-yl]methyl]-7h-imidazo[1,5-a]pyrazin-8-one] | 9 | 
14 | CC1CN(Cc2ccc(F)cc2)CC1c1cn2c(-c3ccc(F)cc3)nc(Br)c2c(=O)[nH]1 (stereo not shown) [Compound 100, 1-bromo-3-(4-fluorophenyl)-6-[1-[(4-fluorophenyl)methyl]-4-methyl-pyrrolidin-3-yl]-7h-imidazo[1,5-a]pyrazin-8-one] | 4 | 
15 | O=c1[nH]c(CN2CC(Oc3cccc(F)n3)C2)cn2c(-c3ccc(F)cc3)ncc12 [Compound 60, 3-(4-fluorophenyl)-6-[[3-[(6-fluoro-2-pyridyl)oxy]azetidin-1-yl]methyl]-7h-imidazo[1,5-a]pyrazin-8-one] | 164 | 
16 | CC(c1cn2c(C3CCOCC3)ncc2c(=O)[nH]1)N1CC(c2ncccn2)C1 (stereo not shown) [Compound 91, 6-[1-(3-pyrimidin-2-ylazetidin-1-yl)ethyl]-3-tetrahydropyran-4-yl-7h-imidazo[1,5-a]pyrazin-8-one] | 46 | 
17 | O=c1[nH]c(CN2CCC(Oc3ccccc3)C2)cn2c(-c3ccc(F)cc3)ncc12 (stereo not shown) [Compound 85, 3-(4-fluorophenyl)-6-[(3-phenoxypyrrolidin-1-yl)methyl]-7h-imidazo[1,5-a]pyrazin-8-one] | 140 | 
18 | O=c1[nH]c(CN2CCC(c3cccc(C(F)(F)F)c3)C2)cn2c(C3CCOC3)ncc12 (stereo not shown) [Compound 125, 3-tetrahydrofuran-3-yl-6-[[3-[3-(trifluoromethyl)phenyl]pyrrolidin-1-yl]methyl]-7h-imidazo[1,5-a]pyrazin-8-one] | 48 | 
19 | CC1CN(CC2CCCCC2)CC1c1cn2c(C3CCOCC3)ncc2c(=O)[nH]1 (stereo not shown) [Compound 115, 6-[1-(cyclohexylmethyl)-4-methyl-pyrrolidin-3-yl]-3-tetrahydropyran-4-yl-7h-imidazo[1,5-a]pyrazin-8-one] | 37 | 

Row | SMILES | IC50 [1] [nM] | IC50 [nM]
20 | Cc1nc2ccccc2nc1OC1CN(Cc2cn3c(C4CCCC4)ncc3c(=O)[nH]2)C1 [Compound 46, 3-cyclopentyl-6-[[3-(3-methylquinoxalin-2-yl)oxyazetidin-1-yl]methyl]-7h-imidazo[1,5-a]pyrazin-8-one] | 6 | 
21 | CN(Cc1ccccc1)Cc1cn2c(-c3ccccc3)ncc2c(=O)[nH]1 [Compound 9, 6-[[benzyl(methyl)amino]methyl]-3-phenyl-7h-imidazo[1,5-a]pyrazin-8-one] | 156 | 
22 | N#Cc1ccc(C2CN(Cc3cn4c(-c5ccc(F)cc5)ncc4c(=O)[nH]3)C2)cc1 [Compound 96, 4-[1-[[3-(4-fluorophenyl)-8-oxo-7h-imidazo[1,5-a]pyrazin-6-yl]methyl]azetidin-3-yl]benzonitrile] |  | 2
23 | N#Cc1cccc(OC2CN(Cc3cn4c(C5CCOCC5)ncc4c(=O)[nH]3)C2)c1 [Compound 94, 3-[1-[(8-oxo-3-tetrahydropyran-4-yl-7h-imidazo[1,5-a]pyrazin-6-yl)methyl]azetidin-3-yl]oxybenzonitrile] |  | 12
24 | COc1ccc(C2CN(Cc3cn4c(-c5cc(F)cc(F)c5)ncc4c(=O)[nH]3)C2)cc1 [Compound 122, 3-(3,5-difluorophenyl)-6-[[3-(4-methoxyphenyl)azetidin-1-yl]methyl]-7h-imidazo[1,5-a]pyrazin-8-one] |  | 38
25 | O=c1[nH]c(CN2CC(Oc3ccccc3F)C2)cn2c(-c3ccc(F)cc3)ncc12 [Compound 49, 6-[[3-(2-fluorophenoxy)azetidin-1-yl]methyl]-3-(4-fluorophenyl)-7h-imidazo[1,5-a]pyrazin-8-one] | 16 | 
26 | O=c1[nH]c(CN2CC(Oc3cccc(F)n3)C2)cn2c(C3CCOCC3)ncc12 [Compound 65, 6-[[3-[(6-fluoro-2-pyridyl)oxy]azetidin-1-yl]methyl]-3-tetrahydropyran-4-yl-7h-imidazo[1,5-a]pyrazin-8-one] | 91 | 
27 | O=c1[nH]c(CN2CC(OCc3ccc(Cl)cc3)C2)cn2c(-c3ccc(F)cc3)ncc12 [Compound 108, 6-[[3-[(4-chlorophenyl)methoxy]azetidin-1-yl]methyl]-3-(4-fluorophenyl)-7h-imidazo[1,5-a]pyrazin-8-one] | 34 | 
28 | CC(C)COC1CN(Cc2cn3c(C4CCCC4)ncc3c(=O)[nH]2)C1 [Compound 58, 3-cyclopentyl-6-[(3-isobutoxyazetidin-1-yl)methyl]-7h-imidazo[1,5-a]pyrazin-8-one] |  | 4
29 | O=c1[nH]c(CN2CC(Oc3cccc(F)c3)C2)cn2c(C3CCOCC3)ncc12 [Compound 71, 6-[[3-(3-fluorophenoxy)azetidin-1-yl]methyl]-3-tetrahydropyran-4-yl-7h-imidazo[1,5-a]pyrazin-8-one] |  | 7
30 | O=c1[nH]c(CN2CC(c3ccc(F)cc3)C2)cn2c(C3CCOCC3)ncc12 [Compound 44, 6-[[3-(4-fluorophenyl)azetidin-1-yl]methyl]-3-tetrahydropyran-4-yl-7h-imidazo[1,5-a]pyrazin-8-one] | 25 | 
31 | O=c1[nH]c(CN2CCC(Nc3ccccc3)C2)cn2c(-c3ccccc3)ncc12 (stereo not shown) [Compound 17, 6-[(3-anilinopyrrolidin-1-yl)methyl]-3-phenyl-7h-imidazo[1,5-a]pyrazin-8-one] | 28 | 
32 | CC1CN(Cc2ccccc2)CC1c1cn2c(-c3ccccc3)ncc2c(=O)[nH]1 (stereo not shown) [Compound 31, 6-(1-benzyl-4-methyl-pyrrolidin-3-yl)-3-phenyl-7h-imidazo[1,5-a]pyrazin-8-one] | 33 | 
33 | O=c1[nH]c(CN2CC(c3ncccn3)C2)cn2c(C3CCOCC3)ncc12 [Compound 54, 6-[(3-pyrimidin-2-ylazetidin-1-yl)methyl]-3-tetrahydropyran-4-yl-7h-imidazo[1,5-a]pyrazin-8-one] | 102 | 
34 | CC(C)OC1CN(C(C)c2cn3c(C4CCOCC4)ncc3c(=O)[nH]2)C1 (stereo not shown) [Compound 117, 6-[1-(3-isopropoxyazetidin-1-yl)ethyl]-3-tetrahydropyran-4-yl-7h-imidazo[1,5-a]pyrazin-8-one] |  | 93
35 | O=c1[nH]c(CN2CC(OCc3ccccc3)C2)cn2c(-c3ccc(F)cc3)ncc12 [Compound 45, 6-[(3-benzyloxyazetidin-1-yl)methyl]-3-(4-fluorophenyl)-7h-imidazo[1,5-a]pyrazin-8-one] | 1 | 
36 | COc1ccc(C2CN(Cc3cn4c(-c5ccc(F)cc5)ncc4c(=O)[nH]3)C2)cc1 [Compound 123, 3-(4-fluorophenyl)-6-[[3-(4-methoxyphenyl)azetidin-1-yl]methyl]-7h-imidazo[1,5-a]pyrazin-8-one] |  | 57
37 | CC1CN(Cc2ccc(C#N)cc2)CC1c1cn2c(C3CCOCC3)ncc2c(=O)[nH]1 (stereo not shown) [Compound 98, 4-[[3-methyl-4-(8-oxo-3-tetrahydropyran-4-yl-7h-imidazo[1,5-a]pyrazin-6-yl)pyrrolidin-1-yl]methyl]benzonitrile] | 18 | 
